This note sets out measurements from ChEMBL document CHEMBL1155987, “2,3,4,5-Tetrahydro-1H-pyrido[2,3-b and e][1,4]diazepines as inhibitors of the bacterial enoyl ACP reductase, FabI” (Bioorg Med Chem Lett, 2009).

For orientation: IC50 means the point on the concentration scale where inhibition reaches its midpoint. High values mean weaker potency, low ones greater potency. By solubility is commonly meant the concentration that dissolves in the medium under given conditions. A high value points to a readily soluble substance.

Data set [1] deals with T1, Enoyl-[acyl-carrier-protein] reductase [NADH] FabI (Escherichia coli K-12, UniProt P0AEK4).
T1 sequence (P0AEK4 whole entry): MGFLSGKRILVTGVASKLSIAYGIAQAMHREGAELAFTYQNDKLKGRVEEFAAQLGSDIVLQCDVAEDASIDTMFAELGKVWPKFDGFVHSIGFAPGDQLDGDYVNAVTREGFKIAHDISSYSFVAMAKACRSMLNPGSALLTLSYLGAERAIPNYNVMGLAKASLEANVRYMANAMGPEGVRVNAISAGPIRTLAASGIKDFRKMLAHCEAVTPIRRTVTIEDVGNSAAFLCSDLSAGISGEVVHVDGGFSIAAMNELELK
Description: Inhibition of Escherichia coli FabI

Data set [2] in a line: physchem. As to conditions: aqueous, pH 4.
Description: Aqueous solubility at pH 4.0
A short description of data set [3]: physchem. As to conditions: aqueous, pH 7.4.
Description: Aqueous solubility at pH 7.4
Data set [4] concerns Staphylococcus aureus. The experiment in a line: microbe, parasite or virus in culture. The note with it: 29213.
Description: Antibacterial activity against Staphylococcus aureus 29213 by microdilution method
The test system of data set [5] is Staphylococcus aureus. The experiment in a line: microbe, parasite or virus in culture. As to conditions: 43300.
Description: Antibacterial activity against methicillin-resistant Staphylococcus aureus 43300 by microdilution method
In data set [6] the test system is Staphylococcus aureus. The experiment in a line: microbe, parasite or virus in culture. The note with it: 934335.
Description: Antibacterial activity against triclosan-resistant Staphylococcus aureus 934335 by microdilution method
The next data set deals with Escherichia coli. The experiment in a line: microbe, parasite or virus in culture.
Data set [7] concerns Staphylococcus aureus. The experiment in a line: Antibacterial activity against Staphylococcus aureus 29213 infected neutropenic mouse thigh model assessed as change in CFU at 100 mg/kg, po after 24 hrs. In kind it is functional, organism-based. Set-up: dose 100 mg/kg.

≈ marks a conversion by molar mass, not a printed value. Calls of active or inactive are those of the source. The calls are words filed in the database; no cut-off is given here.

Description for Escherichia coli: Antibacterial activity against Escherichia coli efflux pump mutant by microdilution method

In turn, `Cc1c(CN(C)C(=O)/C=C/c2cnc3c(c2)CNC(=O)CCN3)oc2ccccc12` showed an IC50 in data set [1] of 30 nM. For the same compound, the solubility is 46 µg/mL (≈ 114 µM) in the data set “physchem [2]” and 17 µg/mL (≈ 42 µM) in “physchem [3]”. In addition, the MIC against Staphylococcus aureus [4] was not above 0.016 µg/mL; in the data set on Staphylococcus aureus [5], 0.031 µg/mL (≈ 0.0766 µM); against Staphylococcus aureus [6], 0.5 µg/mL (≈ 1.24 µM); in the data set with Escherichia coli, not above 0.063 µg/mL.

`CN(Cc1cc2ccccc2n1C)C(=O)/C=C/c1cnc2c(c1)CNCC(=O)N2`: the result in the data set on Staphylococcus aureus [7] was Active. In data set [1], this compound registered an IC50 of 330 nM. For the same compound, the solubility in the data set “physchem [2]” is more than 100 µg/mL; in the data set “physchem [3]”, 82 µg/mL (≈ 211 µM). Besides, the MIC was 0.125 µg/mL (≈ 0.321 µM) with Staphylococcus aureus [4], 0.125 µg/mL (≈ 0.321 µM) in the data set with Staphylococcus aureus [5], 1 µg/mL (≈ 2.57 µM) in the data set with Staphylococcus aureus [6] and 1 µg/mL (≈ 2.57 µM) in the data set with Escherichia coli.

Consider `Cc1c(CN(C)C(=O)/C=C/c2cnc3c(c2)CNCC(=O)N3)oc2ccccc12`, for which the IC50 in data set [1] worked out at 29 nM. The results for the solubility in “physchem [2]” and in the data set “physchem [3]” were 170 µg/mL (≈ 435 µM) and 20 µg/mL (≈ 51.2 µM), respectively. The MIC in the data set on Staphylococcus aureus [4] was not above 0.063 µg/mL; in the data set with Staphylococcus aureus [5], not above 0.063 µg/mL; against Staphylococcus aureus [6], 0.125 µg/mL (≈ 0.32 µM); in the data set on Escherichia coli it was not above 0.063 µg/mL.

Take `Cc1c(CN(C)C(=O)/C=C/c2cnc3c(c2)NCCC(=O)N3)sc2ccc(F)cc12`: the IC50 in data set [1] was found to be 25 nM. Further, the solubility in “physchem [2]” amounted to 31 µg/mL (≈ 73 µM); in “physchem [3]”, 38 µg/mL (≈ 89.5 µM). The MIC with Staphylococcus aureus [4] was not above 0.016 µg/mL; in the data set with Staphylococcus aureus [5], not above 0.016 µg/mL; in the data set with Staphylococcus aureus [6] it was 0.125 µg/mL (≈ 0.294 µM); in the data set on Escherichia coli, 1 µg/mL (≈ 2.36 µM).

`Cc1c(CN(C)C(=O)/C=C/c2cnc3c(c2)NCCC(=O)N3)[nH]c2ccccc12` showed an IC50 in data set [1] of 840 nM. The solubility in the data set “physchem [2]” was determined as 39 µg/mL (≈ 100 µM); in the data set “physchem [3]” it was 37 µg/mL (≈ 95 µM). Moreover, the MIC stood at 0.031 µg/mL (≈ 0.0796 µM) in the data set with Staphylococcus aureus [4], 0.063 µg/mL (≈ 0.162 µM) with Staphylococcus aureus [5], 2 µg/mL (≈ 5.14 µM) with Staphylococcus aureus [6] and 4 µg/mL (≈ 10.3 µM) against Escherichia coli.

With `Cc1c(CN(C)C(=O)/C=C/c2cnc3c(c2)CNCCN3)oc2ccccc12`, in data set [1], the IC50 is 14 nM. For the same compound, the solubility in the data set “physchem [2]” is more than 650 µg/mL; in “physchem [3]”, 440 µg/mL (≈ 1170 µM). Besides, the MIC was 0.063 µg/mL (≈ 0.167 µM) against Staphylococcus aureus [4], 0.063 µg/mL (≈ 0.167 µM) in the data set on Staphylococcus aureus [5], 4 µg/mL (≈ 10.6 µM) in the data set with Staphylococcus aureus [6] and not above 0.063 µg/mL against Escherichia coli.

`CN(Cc1cc2ccccc2n1C)C(=O)/C=C/c1cnc2c(c1)CCC(=O)N2` returned an IC50 in data set [1] of 150 nM. The solubility in the data set “physchem [2]” was 6.2 µg/mL (≈ 16.6 µM); in “physchem [3]” it was 5.6 µg/mL (≈ 15 µM). For the same compound, the MIC is not above 0.016 µg/mL in the data set on Staphylococcus aureus [4], 0.031 µg/mL (≈ 0.0828 µM) against Staphylococcus aureus [5], 0.5 µg/mL (≈ 1.34 µM) with Staphylococcus aureus [6] and not above 0.063 µg/mL against Escherichia coli.

In data set [1], `CN(Cc1cc2ccccc2n1C)C(=O)/C=C/c1cnc2c(c1)NCCC(=O)N2` showed a half-maximal inhibitory concentration (IC50) of 136 nM. Also, the solubility in the data set “physchem [2]” came out at 25 µg/mL (≈ 64.2 µM); in the data set “physchem [3]”, 33 µg/mL (≈ 84.7 µM). The MIC against Staphylococcus aureus [4] is 0.25 µg/mL (≈ 0.642 µM); in the data set on Staphylococcus aureus [5], 0.125 µg/mL (≈ 0.321 µM); against Staphylococcus aureus [6] it was 1 µg/mL (≈ 2.57 µM); in the data set with Escherichia coli, 1 µg/mL (≈ 2.57 µM).

Regarding `Cc1c(CN(C)C(=O)/C=C/c2cnc3c(c2)CNCCCN3)oc2ccccc12`, the IC50 in data set [1] worked out at 16 nM. Moreover, the solubility in “physchem [2]” worked out at 1400 µg/mL (≈ 3590 µM); in “physchem [3]”, 210 µg/mL (≈ 538 µM). Besides, the MIC in the data set on Staphylococcus aureus [4] amounted to 0.25 µg/mL (≈ 0.64 µM); in the data set on Staphylococcus aureus [5], 0.5 µg/mL (≈ 1.28 µM); in the data set on Staphylococcus aureus [6], 8 µg/mL (≈ 20.5 µM); with Escherichia coli it was 8 µg/mL (≈ 20.5 µM).

For the compound `CN1CC(=O)Nc2ncc(/C=C/C(=O)N(C)Cc3cc4ccccc4n3C)cc2C1`, the solubility in “physchem [2]” is 73 µg/mL (≈ 181 µM); in the data set “physchem [3]” it was 9.7 µg/mL (≈ 24 µM). Besides, the MIC against Staphylococcus aureus [4] is 4 µg/mL (≈ 9.91 µM); against Staphylococcus aureus [5], 0.5 µg/mL (≈ 1.24 µM); against Staphylococcus aureus [6] it was 8 µg/mL (≈ 19.8 µM); with Escherichia coli, more than 32 µg/mL.

`Cc1c(CN(C)C(=O)/C=C/c2cnc3c(c2)NCCC(=O)N3)oc2ccccc12`: half-maximal inhibition in data set [1] (IC50) required 25 nM. Besides, the solubility in “physchem [2]” is 1.5 µg/mL (≈ 3.84 µM); in “physchem [3]” it was 1.7 µg/mL (≈ 4.35 µM). The MIC in the data set with Staphylococcus aureus [4] was not above 0.016 µg/mL; against Staphylococcus aureus [5], not above 0.016 µg/mL; in the data set on Staphylococcus aureus [6], not above 0.016 µg/mL; against Escherichia coli, not above 0.063 µg/mL.

Compound `Cc1c(CN(C)C(=O)/C=C/c2cnc3c(c2)NCCCN3)oc2ccccc12` displayed an IC50 in data set [1] of 12 nM. Besides, the solubility in the data set “physchem [2]” was more than 100 µg/mL; in the data set “physchem [3]”, 29 µg/mL (≈ 77 µM). In addition, the MIC is not above 0.016 µg/mL against Staphylococcus aureus [4], 0.031 µg/mL (≈ 0.0823 µM) against Staphylococcus aureus [5], 0.5 µg/mL (≈ 1.33 µM) with Staphylococcus aureus [6] and not above 0.063 µg/mL in the data set on Escherichia coli.

Take `Cc1c(CN(C)C(=O)/C=C/c2cnc3c(c2)CNCCN3)sc2ccccc12`: the IC50 in data set [1] was 9 nM. Besides, the values for the solubility in “physchem [2]” and in “physchem [3]” were 100 µg/mL (≈ 255 µM) and 33 µg/mL (≈ 84.1 µM), respectively. Besides, the MIC in the data set on Staphylococcus aureus [4] is not above 0.016 µg/mL; in the data set on Staphylococcus aureus [5], 0.031 µg/mL (≈ 0.079 µM); in the data set on Staphylococcus aureus [6], 2 µg/mL (≈ 5.1 µM); in the data set on Escherichia coli it was not above 0.063 µg/mL.

As to `Cc1c(CN(C)C(=O)/C=C/c2cnc3c(c2)CCC(=O)N3)sc2ccccc12`, in data set [1], the IC50 was found to be 64 nM. For the same compound, the solubility in the data set “physchem [2]” amounted to 0.2 µg/mL (≈ 0.511 µM); in the data set “physchem [3]”, 0.3 µg/mL (≈ 0.766 µM). Besides, the MIC against Staphylococcus aureus [4] was 0.125 µg/mL (≈ 0.319 µM); in the data set with Staphylococcus aureus [5], not above 0.063 µg/mL; in the data set on Staphylococcus aureus [6] it was 4 µg/mL (≈ 10.2 µM); in the data set with Escherichia coli, 4 µg/mL (≈ 10.2 µM).

For the compound `Cc1c(CN(C)C(=O)/C=C/c2cnc3c(c2)CNC(=O)CN3)oc2ccccc12`, the IC50 in data set [1] stood at 39 nM. Moreover, the MIC against Staphylococcus aureus [4] is not above 0.063 µg/mL; in the data set on Staphylococcus aureus [5], not above 0.063 µg/mL; against Staphylococcus aureus [6], 4 µg/mL (≈ 10.2 µM); in the data set with Escherichia coli, not above 0.063 µg/mL.
